Data from publication PMC11676204.
Read-outs that look alike come from different tables or passages of the source.

Assays:
[1] = test system: methyl predenisolone-induced hypertensive rats; assay: Antihypertensive activity, non-invasive tail-cuff method; assay type: in vivo, rat; parameters: Systolic BP / Diastolic BP: unit not given here; details: for Diastolic BP / Heart Rate / MABP / Systolic BP: methyl predenisolone 20 mg/kg/week rats, n = 4, mean ± S.E.M.
Method: After recording the initial BP of rats, the animals were divided into seven groups of four animals each. One group was chosen as the control group. The remaining groups were given a subcutaneous injection of methyl-predenisolone acetate (20 mg/kg/week) for one week, as described by Ekerbicer, N et al.. […] In total, 28 animals were evenly divided into 7 groups of 4 animals each to attain maximum balance of subjects across experimental conditions. […] Animals in group II (hypertensive control) were injected methylprednisolone acetate (20 mg/kg/week) intraperitoneally for hypertension induction, creating a baseline model of plateau hypertension. Animals in Group III were administered with 20 mg/kg/week intraperitoneal injection of methylprednisolone treated with captopril at an oral dosage of 5 mg/kg/day. For Group IV, the basal dosage of methylprednisolone was provided along with a higher dosage of captopril (10 mg/kg/day by oral route). […] The inclusion of multiple treatment groups with varying doses provided insights into the relative efficacy and dose-response relationship of the interventions. Randomization was done by block randomization, ensuring without bias these allocations of animals into groups. Before intervention, baseline characteristics such as weight, age, or sex of animals were determined, and t-test or ANOVA was used to affirm that no significant difference between groups existed. The SYRCLE’s Risk of Bias tool analyzed potential biases across various domains like selection, performance, and detection bias; each domain was rated according to low, high, or unclear risk.
The CODA Non-Invasive Blood Pressure Recorder (Kent Scientific Corporation, Torrington, CT, USA) was used to measure mean arterial blood pressure in conscious rats using the tail-cuff method. With the rat’s tail protruding, the restrainer was inserted in the BP instrument. […] The tail was gently pressed against a transducer membrane that was linked to the digital BP display panel. After that, the device was turned on and stabilized until a consistent pulse rate was seen. […] In this investigation, albino rats (body weight 150–200 g) were employed. Rats were divided into four groups, each with four individuals. […] After 1 h, the mean arterial blood pressure was measured.
Statistical analysis was carried out by one-way analysis of variance followed by Dunnet’s multiple comparison test using GraphPad InStat 3 (Graph Pad Software Inc., San Diego, CA, USA). All values were expressed as mean ± standard error of the mean (SEM). All groups were compared with hypertensive control animals. p-value of <0.01 was statistically significant.

[2] = Pharmacokinetics after oral administration (plasma, UV spectrophotometry at 340 nm); assay type: in vivo; details: rat; for Cmax / MRT / AUC(0-t): plasma; for AUC(0-t): read-out: AUC 0–7 (converted)
Method: In accordance with the ICH guidelines Q2 (R1) (2005) standard calibration curves, regression equations, and values for LOD and LOQ for each compound were validated with UV spectrophotometric method. Various parameters, such as linearity, precision, limit of detection, and limit of quantification, were considered for the method validation. […] The rats were orally administered (10, 20, and 40 mg/Kg body weight, n = 3) using a 20 G gavage needle. The animals were given a standard diet 4 h after the dosing, and blood samples were collected (approximately 400 μL) from each animal and placed into heparinized tubes before the dosing and at 0, 30, 60, 120, 180, 240, 300, 360, and 420 min after the dosing. Plasma (100 μL) was separated by centrifuging blood samples at 3600 rpm for 10 min at room temperature, followed by immediate processing for the analyses.
Plasma concentration by the compound was measured by UV spectrophotometry at 340 nm and validated per ICH requirements. […] The precision studies gave % RSD less than 2 for intra-day and inter-day variations, and recovery studies were between 97–99%, indicating the reliability of method.
The plasma concentration–time graph obtained after oral administrations were subjected to non-compartmental analyses based on the statistical moment theory, as shown in Figure 6 and Table 4. Pharmacokinetic parameters were calculated using WinNorlin 5.2 (Certara; available at www.certara.com, accessed on 20 November 2024). The parameters obtained include maximum plasma concentration (Cmax), the time to reach Cmax (Tmax), the elimination half-life (t1/2), the area under the plasma concentration–time curve from time zero to infinity (AUC0–∞), the area under the plasma concentration–time curve from time zero to 420 min AUC0–7, the mean residence time (MRT), and clearance (CL).

[3] = biological target: ACE enzyme (Homo sapiens, UniProt P12821); assay: ACE inhibition assay (absorbance at 340 nm)
ACE enzyme, sequence (P12821 30-1306, species assumed): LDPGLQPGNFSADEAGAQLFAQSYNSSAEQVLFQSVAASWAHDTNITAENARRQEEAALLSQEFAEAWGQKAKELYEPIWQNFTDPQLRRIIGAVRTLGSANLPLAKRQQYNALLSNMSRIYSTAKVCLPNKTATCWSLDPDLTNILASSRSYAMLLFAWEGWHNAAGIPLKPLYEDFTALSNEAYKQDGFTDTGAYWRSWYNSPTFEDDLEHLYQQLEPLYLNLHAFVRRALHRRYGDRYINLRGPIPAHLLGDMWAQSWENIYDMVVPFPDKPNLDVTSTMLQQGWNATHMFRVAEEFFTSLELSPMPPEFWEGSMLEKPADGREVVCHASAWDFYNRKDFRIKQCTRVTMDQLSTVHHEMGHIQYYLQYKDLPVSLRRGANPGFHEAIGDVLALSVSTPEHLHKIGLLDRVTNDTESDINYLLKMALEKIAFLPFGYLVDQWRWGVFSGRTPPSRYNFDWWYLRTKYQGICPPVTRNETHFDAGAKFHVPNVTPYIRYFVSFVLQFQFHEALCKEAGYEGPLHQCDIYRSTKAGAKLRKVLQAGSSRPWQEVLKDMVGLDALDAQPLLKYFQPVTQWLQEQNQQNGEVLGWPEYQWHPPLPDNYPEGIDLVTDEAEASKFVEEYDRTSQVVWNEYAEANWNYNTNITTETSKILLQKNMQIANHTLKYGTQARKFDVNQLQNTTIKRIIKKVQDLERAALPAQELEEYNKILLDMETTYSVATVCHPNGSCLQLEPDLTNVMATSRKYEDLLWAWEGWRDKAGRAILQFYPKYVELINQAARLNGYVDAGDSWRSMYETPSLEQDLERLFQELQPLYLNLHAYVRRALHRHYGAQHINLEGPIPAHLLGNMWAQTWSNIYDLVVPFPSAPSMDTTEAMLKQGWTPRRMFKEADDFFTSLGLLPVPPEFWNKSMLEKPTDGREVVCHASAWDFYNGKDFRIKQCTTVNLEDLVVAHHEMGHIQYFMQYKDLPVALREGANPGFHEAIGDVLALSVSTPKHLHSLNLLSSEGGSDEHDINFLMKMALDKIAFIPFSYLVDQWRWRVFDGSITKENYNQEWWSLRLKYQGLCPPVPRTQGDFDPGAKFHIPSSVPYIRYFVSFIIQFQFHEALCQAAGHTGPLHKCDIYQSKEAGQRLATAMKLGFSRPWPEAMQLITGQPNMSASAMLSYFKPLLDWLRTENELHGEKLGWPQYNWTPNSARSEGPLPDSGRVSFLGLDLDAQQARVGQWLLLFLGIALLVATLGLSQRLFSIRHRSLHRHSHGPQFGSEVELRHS
Method: The enzyme solution and substrate were prepared under standard protocols, and the assay was performed in 96-well plates wherein the ACE enzyme and inhibitor were mixed with the substrate. The reaction was incubated at 37 °C for 30 min, after which the ACE activity was determined by measuring the absorbance at 340 nm that correlated with the product formation and enzyme activity [36]. The IC₅₀ values that specify inhibition at 50% concentration were generated from concentration-inhibition data. The percentage inhibition was calculated using the formula:Percentage Inhibition (%) = (A − C)/ (A − B) ∗ 100 where A is the absorbance of the negative control (substrate and enzyme), B is the absorbance of the blank (buffer only) and C is the absorbance of the sample (enzyme, substrate and sample). For the positive control, captopril was used instead of a sample and was considered as C.

COc1cc2oc(-c3ccc(O)cc3)c(OC3OC(CO)C(O)C(O)C3O)c(=O)c2c(O)c1OC (stereo not shown)
Diastolic BP ([1]; 10 mg/kg): 126.99 ± 6.80 | Heart Rate ([1]; 10 mg/kg): 443.99 ± 15.12 Beats/min | MABP ([1]; 10 mg/kg): 144.4 ± 4.59 mmHg | Systolic BP ([1]; 10 mg/kg): 179.19 ± 7.18 | Diastolic BP ([1]; 20 mg/kg oral): 110.88 ± 10.28 | Heart Rate ([1]; 20 mg/kg oral): 430.66 ± 10.5 Beats/min | MABP ([1]; 20 mg/kg oral): 120.1 ± 5.1 mmHg | Systolic BP ([1]; 20 mg/kg oral): 138.44 ± 7.09 | Diastolic BP ([1]; 40 mg/kg oral): 85.76 ± 7.4 | Heart Rate ([1]; 40 mg/kg oral): 408.99 ± 9.0 Beats/min | MABP ([1]; 40 mg/kg oral): 95.53 ± 7.5 mmHg | Systolic BP ([1]; 40 mg/kg oral): 114.99 ± 5.8 | blood pressure in treated rats ([1]; 10, 20 and 40 mg/kg): dose-dependent decrease in blood pressure | systolic and diastolic blood pressures compared with vehicle ([1]; methyl predenisolone-induced hypertensive rats, p < 0.01): significantly lower | Cmax ([2]; 10 mg/kg b.w. oral): 100 µg/mL | MRT ([2]; 10 mg/kg b.w. oral): 3.05 h | AUC(0-t) ([2]; 10 mg/kg b.w. oral): 438 µg·h/mL | Cmax ([2]; 20 mg/kg b.w. oral): 119 µg/mL | MRT ([2]; 20 mg/kg b.w. oral): 2.98 h | AUC(0-t) ([2]; 20 mg/kg b.w. oral): 499 µg·h/mL | Cmax ([2]; 40 mg/kg b.w. oral): 125 µg/mL | MRT ([2]; 40 mg/kg b.w. oral): 3.04 h | AUC(0-t) ([2]; 40 mg/kg b.w. oral): 539 µg·h/mL | Elimination Rate ([2]; 10 mg/kg b.w. oral): 0.0001236 h⁻¹ | Elimination Rate ([2]; 20 mg/kg b.w. oral): 0.0006846 h⁻¹ | Elimination Rate ([2]; 40 mg/kg b.w. oral): 0.0002917 h⁻¹ | bioavailability ([2]; oral): moderate | IC50 [3]: ~20 µM | inhibition at 100 µM ([3]; read-out: maximum ACE inhibition): ~82%

C[C@H](CS)C(=O)N1CCC[C@H]1C(=O)O [Captopril, captopril, reference compound]
Diastolic BP ([1]; 5 mg/kg): 117.8 ± 11.19 | Heart Rate ([1]; 5 mg/kg): 507.11 ± 6.13 Beats/min | MABP ([1]; 5 mg/kg): 126.19 ± 11.10 mmHg | Systolic BP ([1]; 5 mg/kg): 142.99 ± 10.88 | Diastolic BP ([1]; 10 mg/kg): 98.66 ± 10.18 | Heart Rate ([1]; 10 mg/kg): 421.78 ± 12.0 Beats/min | MABP ([1]; 10 mg/kg): 112.6 ± 5.17 mmHg | Systolic BP ([1]; 10 mg/kg): 136.77 ± 6.13
